Test results reported in US11117947B2, “Double-acylated GLP-1 derivatives” (Novo Nordisk A/S, priority 2011, dated 2021).
Read-outs that look alike come from different tables or passages of the source. Numbered stars: 1 amine (or outer) side, 2 acyl side, 3 side chain; on linkers, the order of the positions; unused ones are H or OH. Square brackets hold non-standard residues; d marks the D form. Side chains are listed from the residue outwards. Peptide text beside a SMILES is read from it. * marks the point of attachment. γGlu = O=C(O)[C@H](CCC(=O)[*:2])N[*:1]; C14 diacid = O=C(O)CCCCCCCCCCCCC(=O)*; AEEA = NCCOCCOCC(=O)O; Aib = CC(C)(N)C(=O)O

Tests used:
human GLP-1 receptor = molecular target: T1, human GLP-1 receptor (Homo sapiens, UniProt P43220); experiment: GLP-1 receptor binding: displacement of 125I-GLP-1 (SPA) at low and high albumin; conditions: for Ratio [(IC50/nM) high HSA]/[(IC50/nM) low HSA]: 2.0% HSA vs 0.001% HSA
T1 construct: expressed in transfected cells; membranes
T1 sequence (P43220 24-463): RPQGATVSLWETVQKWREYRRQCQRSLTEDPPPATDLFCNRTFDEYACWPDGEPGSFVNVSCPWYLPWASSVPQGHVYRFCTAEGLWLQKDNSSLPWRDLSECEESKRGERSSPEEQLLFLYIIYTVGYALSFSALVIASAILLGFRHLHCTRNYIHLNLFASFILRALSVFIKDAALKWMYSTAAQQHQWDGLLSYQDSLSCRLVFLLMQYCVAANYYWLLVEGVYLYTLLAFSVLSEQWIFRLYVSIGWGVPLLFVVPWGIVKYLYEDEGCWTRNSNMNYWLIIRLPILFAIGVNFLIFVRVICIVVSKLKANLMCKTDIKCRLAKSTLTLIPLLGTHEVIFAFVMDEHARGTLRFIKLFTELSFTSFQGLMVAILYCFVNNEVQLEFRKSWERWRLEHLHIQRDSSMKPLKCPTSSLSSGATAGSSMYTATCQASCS
Experimental: The purpose of this experiment is to investigate the binding to the GLP-1 receptor of the GLP-1 derivatives, and how the binding is potentially influenced by the presence of albumin. This is done in an in vitro experiment as described below.
In order to test the binding of the derivatives to albumin, the assay was performed with a low concentration of albumin (0.001%—corresponding to the residual amount thereof in the tracer), as well as with a high concentration of albumin (2.0% added). A shift in the binding affinity, IC50, is an indication that the peptide in question binds to albumin, and thereby a prediction of a potential protracted pharmacokinetic profile of the peptide in question in animal models.
Species (in vitro): Hamster
Biological End Point: Receptor Binding
A stable transfected cell line and a high expressing clone were selected for screening. The cells were grown at 5% CO2 in DMEM, 10% FCS, 1% Pen/Strep (Penicillin/Streptomycin) and 1.0 mg/ml of the selection marker G418.
The cells (approx. 80% confluence) were washed twice in PBS and harvested with Versene (aqueous solution of the tetrasodium salt of ethylenediaminetetraacetic acid), following which they were separated by centrifugation at 1000 rpm for 5 min. The cells/cell pellet must be kept on ice to the extent possible in the subsequent steps. The cell pellet was homogenised with Ultrathurrax for 20-30 seconds in a suitable amount of Buffer 1 (depending on the amount of cells, but e.g. 10 ml). The homogenate was centrifuged at 20000 rpm for 15 minutes. The pellet was resuspended (homogenised) in 10 ml Buffer 2 and re-centrifuged. This step was repeated once more. The resulting pellet was resuspended in Buffer 2, and the protein concentration was determined. The membranes were stored at minus 80° C.
Buffer 1: 20 mM Na-HEPES+10 mM EDTA, pH 7.4
Buffer 2: 20 mM Na-HEPES+0.1 mM EDTA, pH 7.4
Test compounds, membranes, SPA-particles and [^125I]-GLP-1(7-36)NH2 were diluted in assay buffer. 50 ul (micro liter) HSA (“high albumin” experiment containing 2% HSA), or buffer (“low albumin” experiment containing 0.001% HSA), was added to Optiplate, and 25 ul of test compounds were added. 5-10 ug membrane protein/sample was added (50 ul) corresponding to 0.1-0.2 mg protein/ml (to be preferably optimised for each membrane preparation). SPA-particles (Wheatgerm agglutinin SPA beads, Perkin Elmer, #RPNQ0001) were added in an amount of 0.5 mg/well (50 ul). The incubation was started with [^125I]-GLP-1]-(7-36)NH2 (final concentration 0.06 nM corresponding to 49.880 DPM, 25 ul). The plates were sealed with PlateSealer and incubated for 120 minutes at 30° C. while shaking. The plates were centrifuged (1500 rpm, 10 min) and counted in Topcounter.

[1] = Estimate of oral bioavailability: gut injection in rat (caprate), exposure in plasma; format: in vivo; conditions: injection in jejunum, 1000 uM in 55 mg/ml sodium caprate, plasma concentration (pM) at 30 min divided by dosing solution concentration (μM), mean n=4
Summary of the method: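 Male Sprague Dawley rats (~240 g, n=4) received 100 μl of 1000 uM derivative in 55 mg/ml sodium caprate by catheter into proximal or mid jejunum. Tail-vein EDTA plasma was sampled up to 240 min. Peptide was quantified by two-antibody bead chemiluminescence immunoassay, giving mean concentration-time profiles (pmol/l).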

[2] = low albumin, 0.001% HSA, read-out: IC50/nM (low HSA)

SMILES	Ratio [(IC50/nM) high HSA]/[(IC50/nM) low HSA] (human GLP-1 receptor)	Dose-corrected exposure at 30 min [1]	IC50 (human GLP-1 receptor; [2]) [nM]	IC50 (human GLP-1 receptor; high albumin, 2.0% HSA, read-out: IC50/nM (high HSA)) [nM]
CC[C@H](C)[C@H](NC(=O)[C@H](Cc1ccccc1)NC(=O)[C@H](CCCCNC(=O)COCCOCCNC(=O)COCCOCCNC(=O)CC[C@H](NC(=O)CCCCCCCCCCCCC(=O)O)C(=O)O)NC(=O)[C@H](CCCNC(=N)N)NC(=O)[C@@H](NC(=O)[C@H](C)NC(=O)[C@H](CCC(N)=O)NC(=O)[C@H](CCCCNC(=O)COCCOCCNC(=O)COCCOCCNC(=O)CC[C@H](NC(=O)CCCCCCCCCCCCC(=O)O)C(=O)O)NC(=O)[C@H](CCC(=O)O)NC(=O)[C@H](CC(C)C)NC(=O)[C@H](Cc1ccc(O)cc1)NC(=O)[C@H](CO)NC(=O)[C@H](CO)NC(=O)[C@@H](NC(=O)[C@H](CC(=O)O)NC(=O)[C@H](CO)NC(=O)[C@@H](NC(=O)[C@H](Cc1ccccc1)NC(=O)[C@@H](NC(=O)CNC(=O)[C@H](CCC(=O)O)NC(=O)C(C)(C)NC(=O)[C@@H](N)Cc1c[nH]cn1)[C@@H](C)O)[C@@H](C)O)C(C)C)C(C)C)C(=O)N[C@@H](C)C(=O)N[C@@H](Cc1c[nH]c2ccccc12)C(=O)N[C@@H](CC(C)C)C(=O)N[C@H](C(=O)N[C@@H](CCCNC(=N)N)C(=O)O)C(C)C [Example 8, N^ε22-[2-[2-[2-[[2-[2-[2-[[(4S)-4-carboxy-4-(13-carboxytridecanoylamino)butanoyl]amino]ethoxy]ethoxy]acetyl]amino]ethoxy]ethoxy]acetyl], N^ε27-[2-[2-[2-[[2-[2-[2-[[(4S)-4-carboxy-4-(13-carboxytridecanoylamino)butanoyl]amino]ethoxy]ethoxy]acetyl]amino]ethoxy]ethoxy]acetyl]-[Aib^8,Lys^22,Val^25,Arg^26,Lys^27,Arg^34]-GLP-1-(7-34)-peptide] (H-H[Aib]EGTFTSDVSSYLEK([AEEA-AEEA-γGlu-C14 diacid])QAVRK([AEEA-AEEA-γGlu-C14 diacid])FIAWLVR-OH)	57	86	–	–
CC[C@H](C)[C@H](NC(=O)[C@H](Cc1ccccc1)NC(=O)[C@H](CCCCNC(=O)COCCOCCNC(=O)COCCOCCNC(=O)CC[C@H](NC(=O)CCCCCCCCCCCCC(=O)O)C(=O)O)NC(=O)[C@H](CCCNC(=N)N)NC(=O)[C@@H](NC(=O)[C@H](C)NC(=O)[C@H](CCC(N)=O)NC(=O)[C@H](CCCCNC(=O)COCCOCCNC(=O)COCCOCCNC(=O)CC[C@H](NC(=O)CCCCCCCCCCCCC(=O)O)C(=O)O)NC(=O)[C@H](CCC(=O)O)NC(=O)[C@H](CC(C)C)NC(=O)[C@H](Cc1ccc(O)cc1)NC(=O)[C@H](CO)NC(=O)[C@H](CO)NC(=O)[C@@H](NC(=O)[C@H](CC(=O)O)NC(=O)[C@H](CO)NC(=O)[C@@H](NC(=O)[C@H](Cc1ccccc1)NC(=O)[C@@H](NC(=O)CNC(=O)[C@H](CCC(=O)O)NC(=O)C(C)(C)NC(=O)[C@@H](N)Cc1c[nH]cn1)[C@@H](C)O)[C@@H](C)O)C(C)C)C(C)C)C(=O)N[C@@H](C)C(=O)N[C@@H](Cc1c[nH]c2ccccc12)C(=O)N[C@@H](CC(C)C)C(=O)N[C@H](C(=O)N[C@@H](CCCNC(=N)N)C(=O)NCC(=O)O)C(C)C [Example 9, N^ε22-[2-[2-[2-[[2-[2-[2-[[(4S)-4-carboxy-4-(13-carboxytridecanoylamino)butanoyl]amino]ethoxy]ethoxy]acetyl]amino]ethoxy]ethoxy]acetyl],N^ε27-[2-[2-[2-[[2-[2-[2-[[(4S)-4-carboxy-4-(13-carboxytridecanoylamino)butanoyl]amino]ethoxy]ethoxy]acetyl]amino]ethoxy]ethoxy]acetyl]-Aib^8,Lys^22,Val^25,Arg^26,Lys^27,Arg^34l-GLP-1-(7-35)-peptide] (H-H[Aib]EGTFTSDVSSYLEK([AEEA-AEEA-γGlu-C14 diacid])QAVRK([AEEA-AEEA-γGlu-C14 diacid])FIAWLVRG-OH)	157	65	0.38	–
CC[C@H](C)[C@H](NC(=O)[C@H](Cc1ccccc1)NC(=O)[C@H](CCCCNC(=O)COCCOCCNC(=O)COCCOCCNC(=O)CC[C@H](NC(=O)CCCCCCCCCCCCC(=O)O)C(=O)O)NC(=O)[C@H](CCCNC(=N)N)NC(=O)[C@@H](NC(=O)[C@H](C)NC(=O)[C@H](CCC(N)=O)NC(=O)CNC(=O)[C@H](CCC(=O)O)NC(=O)[C@H](CC(C)C)NC(=O)[C@H](Cc1ccc(O)cc1)NC(=O)[C@H](CO)NC(=O)[C@H](CO)NC(=O)[C@@H](NC(=O)[C@H](CC(=O)O)NC(=O)[C@H](CO)NC(=O)[C@@H](NC(=O)[C@H](Cc1ccccc1)NC(=O)[C@@H](NC(=O)CNC(=O)[C@H](CCC(=O)O)NC(=O)C(C)(C)NC(=O)[C@@H](N)Cc1c[nH]cn1)[C@@H](C)O)[C@@H](C)O)C(C)C)C(C)C)C(=O)N[C@@H](C)C(=O)N[C@@H](Cc1c[nH]cn1)C(=O)N[C@@H](CC(C)C)C(=O)N[C@H](C(=O)N[C@@H](CCC(N)=O)C(=O)NCC(=O)N[C@@H](CCCNC(=N)N)C(=O)N[C@@H](CCCCNC(=O)COCCOCCNC(=O)COCCOCCNC(=O)CC[C@H](NC(=O)CCCCCCCCCCCCC(=O)O)C(=O)O)C(=O)O)C(C)C [Example 15, N^ε27-[2-[2-[2-[[2-[2-[2-[[(4S)-4-carboxy-4-(13-carboxytridecanoylamino)butanoyl]amino]ethoxy]ethoxy]acetyl]amino]ethoxy]ethoxy]acetyl], N^ε37-[2-[2-[2-[[2-[2-[2-[[(4S)-4-carboxy-4-(13-carboxytridecanoylamino)butanoyl]amino]ethoxy]ethoxy]acetyl]amino]ethoxy]ethoxy]acetyl]-[Aib^8,Val^25,Arg^26,Lys^27,His^31,Gln^34,Lys^37]-GLP-1-(7-37)-peptide] (H-H[Aib]EGTFTSDVSSYLEGQAVRK([AEEA-AEEA-γGlu-C14 diacid])FIAHLVQGRK([AEEA-AEEA-γGlu-C14 diacid])-OH)	155	98	0.19	29
CC[C@H](C)[C@H](NC(=O)[C@H](Cc1ccccc1)NC(=O)[C@H](CCCCNC(=O)COCCOCCNC(=O)COCCOCCNC(=O)CC[C@H](NC(=O)CCCCCCCCCCCCC(=O)O)C(=O)O)NC(=O)[C@H](CCCNC(=N)N)NC(=O)[C@@H](NC(=O)[C@H](C)NC(=O)[C@H](CCC(N)=O)NC(=O)CNC(=O)[C@H](CCC(=O)O)NC(=O)[C@H](CC(C)C)NC(=O)[C@H](Cc1ccc(O)cc1)NC(=O)[C@H](CO)NC(=O)[C@H](CO)NC(=O)[C@@H](NC(=O)[C@H](CC(=O)O)NC(=O)[C@H](CO)NC(=O)[C@@H](NC(=O)[C@H](Cc1ccccc1)NC(=O)[C@@H](NC(=O)CNC(=O)[C@H](CCC(=O)O)NC(=O)[C@H](C)NC(=O)[C@@H](N)Cc1c[nH]cn1)[C@@H](C)O)[C@@H](C)O)C(C)C)C(C)C)C(=O)N[C@@H](C)C(=O)N[C@@H](Cc1c[nH]cn1)C(=O)N[C@@H](CC(C)C)C(=O)N[C@H](C(=O)N[C@@H](CCC(N)=O)C(=O)NCC(=O)N[C@@H](CCCNC(=N)N)C(=O)N[C@@H](CCCCNC(=O)COCCOCCNC(=O)COCCOCCNC(=O)CC[C@H](NC(=O)CCCCCCCCCCCCC(=O)O)C(=O)O)C(=O)O)C(C)C [Example 16, N^ε27-[2-[2-[2-[[2-[2-[2-[[(4S)-4-carboxy-4-(13-carboxytridecanoylamino)butanoyl]amino]ethoxy]ethoxy]acetyl]amino]ethoxy]ethoxy]acetyl], N^ε37-[2-[2-[2-[[2-[2-[2-[[(4S)-4-carboxy-4-(13-carboxytridecanoylamino)butanoyl]amino]ethoxy]ethoxy]acetyl]amino]ethoxy]ethoxy]acetyl]-[Val^25,Arg^26,Lys^27,His^31,Gln^34,Lys^37]-GLP-1-(7-37)-peptide] (H-HAEGTFTSDVSSYLEGQAVRK([AEEA-AEEA-γGlu-C14 diacid])FIAHLVQGRK([AEEA-AEEA-γGlu-C14 diacid])-OH; N-terminus and C-terminus assumed)	–	115	0.2	–
